15 compounds from patent US20240208992A1, “MACROCYCLES AS CFTR MODULATORS” (Idorsia Pharmaceuticals Ltd, priority 2021, published 2024) can be followed below.

This assay deals with human F508del-CFTR (Homo sapiens, UniProt P13569, DEL508-508). The assay can be described thus: F508del-CFTR cell surface expression (corrector activity), DiscoveRx ß-galactosidase complementation chemiluminescence assay in recombinant U2OS cell line.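 For all read-outs here: U2OS cells co-expressing ProLink-tagged F508del-CFTR and a membrane-anchored enzyme acceptor, where more surface CFTR restores β-galactosidase activity measured by chemiluminescence.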 To be noted: U2OS cell line, 16h compound incubation; for EC50: EC50, F508del-CFTR cell surface expression, geomean values; for Emax: U2OS, in relation to the Emax of the corrector lumacaftor (=100%), arithmetic mean values.
Sequence of human F508del-CFTR (P13569 with tags, fused parts or gaps DEL508-508): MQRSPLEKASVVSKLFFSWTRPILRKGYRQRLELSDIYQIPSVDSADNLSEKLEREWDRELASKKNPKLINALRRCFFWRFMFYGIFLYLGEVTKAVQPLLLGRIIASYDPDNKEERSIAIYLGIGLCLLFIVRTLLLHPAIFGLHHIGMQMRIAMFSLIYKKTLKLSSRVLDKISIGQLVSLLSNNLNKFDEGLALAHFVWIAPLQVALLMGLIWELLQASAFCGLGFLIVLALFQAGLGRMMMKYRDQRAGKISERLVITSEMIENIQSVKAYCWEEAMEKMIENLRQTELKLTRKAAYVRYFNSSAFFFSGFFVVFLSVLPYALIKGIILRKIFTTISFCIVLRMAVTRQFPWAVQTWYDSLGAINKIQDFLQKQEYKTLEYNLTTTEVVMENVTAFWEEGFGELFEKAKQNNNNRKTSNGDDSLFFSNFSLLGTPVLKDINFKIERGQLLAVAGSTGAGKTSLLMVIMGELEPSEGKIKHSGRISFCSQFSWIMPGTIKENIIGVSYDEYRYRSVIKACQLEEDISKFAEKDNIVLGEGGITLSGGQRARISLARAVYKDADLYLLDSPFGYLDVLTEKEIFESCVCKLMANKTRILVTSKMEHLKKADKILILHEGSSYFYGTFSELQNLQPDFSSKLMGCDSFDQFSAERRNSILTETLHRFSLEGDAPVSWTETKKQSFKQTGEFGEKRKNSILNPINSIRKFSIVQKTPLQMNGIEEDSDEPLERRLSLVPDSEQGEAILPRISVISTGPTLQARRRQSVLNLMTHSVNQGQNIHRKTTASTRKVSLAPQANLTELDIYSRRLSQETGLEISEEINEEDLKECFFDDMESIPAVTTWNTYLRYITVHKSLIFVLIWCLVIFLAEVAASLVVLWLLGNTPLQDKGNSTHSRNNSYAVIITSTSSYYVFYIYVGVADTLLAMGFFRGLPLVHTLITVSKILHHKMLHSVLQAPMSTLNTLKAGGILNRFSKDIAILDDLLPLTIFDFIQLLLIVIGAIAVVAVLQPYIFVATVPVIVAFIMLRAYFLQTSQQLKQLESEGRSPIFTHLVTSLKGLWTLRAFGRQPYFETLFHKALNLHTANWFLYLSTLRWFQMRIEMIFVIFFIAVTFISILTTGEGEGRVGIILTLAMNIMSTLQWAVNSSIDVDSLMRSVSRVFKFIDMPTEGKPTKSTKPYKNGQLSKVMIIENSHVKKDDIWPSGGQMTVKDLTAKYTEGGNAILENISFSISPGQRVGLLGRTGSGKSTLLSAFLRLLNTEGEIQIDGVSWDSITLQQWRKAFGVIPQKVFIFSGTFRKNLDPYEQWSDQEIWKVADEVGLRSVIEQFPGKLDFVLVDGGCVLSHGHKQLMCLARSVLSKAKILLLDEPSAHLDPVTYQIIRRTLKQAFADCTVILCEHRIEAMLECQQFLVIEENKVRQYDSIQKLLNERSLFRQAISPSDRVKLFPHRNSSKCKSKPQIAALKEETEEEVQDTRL

In the case of `CN1C(=O)C[C@@H](C(=O)NCCc2ccc3c(c2)OCO3)NC(=O)c2c(ccc3ccccc23)OC[C@@H](Cc2ccccc2)NC(=O)CN(C[C@H]2CCCCO2)C(=O)[C@@H]1CC1CC1` [Example 340, (3S,7S,13R)-N-(2-(benzo[d][1,3]dioxol-5-yl)ethyl)-13-benzyl-7-(cyclopropylmethyl)-6-methyl-1,5,8,11-tetraoxo-9-(((R)-tetrahydro-2H-pyran-2-yl)methyl)-1,2,3,4,5,6,7,8,9,10,11,12,13,14-tetradecahydronaphtho[1,2-p][1]oxa[4,7,10,14]tetraazacycloheptadecine-3-carboxamide], the EC50 worked out at 0.278 µM and the Emax worked out at 139%.
For the compound `CN1C(=O)C[C@@H](C(=O)NCCc2ccc3c(c2)OCO3)NC(=O)c2c(ccc3ccccc23)OC[C@@H](Cc2ccccc2)NC(=O)CN(CCC2CCCCC2)C(=O)[C@@H]1CC1CC1` [Example 341, (3S,7S,13R)-N-(2-(benzo[d][1,3]dioxol-5-yl)ethyl)-13-benzyl-9-(2-cyclohexylethyl)-7-(cyclopropylmethyl)-6-methyl-1,5,8,11-tetraoxo-1,2,3,4,5,6,7,8,9,10,11,12,13,14-tetradecahydronaphtho[1,2-p][1]oxa[4,7,10,14]tetraazacycloheptadecine-3-carboxamide], the EC50 is 0.144 µM and the Emax came to 237%.
Take `COc1cccc(CCNC(=O)[C@@H]2CC(=O)N(C)[C@@H](CC(C)C)C(=O)N3CCCC[C@H]3C(=O)N[C@H](Cc3ccccc3)COc3ccc4ncoc4c3C(=O)N2)c1` [Example 342, (8S,12S,18aS,21R)-21-benzyl-12-isobutyl-N-(3-methoxyphenethyl)-11-methyl-6,10,13,19-tetraoxo-6,7,8,9,10,11,12,13,16,17,18,18a,19,20,21,22-hexadecahydro-15H-oxazolo[4′,5′:5,6]benzo[1,2-p]pyrido[2,1-f][1]oxa[4,7,10,14]tetraazacycloheptadecine-8-carboxamide]: the EC50 is 0.464 µM and the Emax worked out at 128%.
Turning to `COc1cccc(CCNC(=O)[C@@H]2CC(=O)N(C)[C@@H](CC(C)C)C(=O)N3CCCC[C@@H]3C(=O)N[C@H](Cc3ccccc3)COc3ccc4ncoc4c3C(=O)N2)c1` [Example 343, (8S,12S,18aR,21R)-21-benzyl-12-isobutyl-N-(3-methoxyphenethyl)-11-methyl-6,10,13,19-tetraoxo-6,7,8,9,10,11,12,13,16,17,18,18a,19,20,21,22-hexadecahydro-15H-oxazolo[4′,5′:5,6]benzo[1,2-p]pyrido[2,1-f][1]oxa[4,7,10,14]tetraazacycloheptadecine-8-carboxamide], the EC50 worked out at 0.332 µM and the Emax turned out to be 270%.
In the case of `Cc1cc(CCNC(=O)[C@@H]2CC(=O)N(C)[C@@H](CC(C)C)C(=O)N(CCC3CCCCC3)CC(=O)N[C@H](Cc3ccccc3)COc3cnc4ccccc4c3C(=O)N2)on1` [Example 344, (3S,7S,13R)-13-benzyl-9-(2-cyclohexylethyl)-7-isobutyl-6-methyl-N-(2-(3-methylisoxazol-5-yl)ethyl)-1,5,8,11-tetraoxo-1,2,3,4,5,6,7,8,9,10,11,12,13,14-tetradecahydro-[1]oxa[4,7,10,14]tetraazacycloheptadecino[17,16-c]quinoline-3-carboxamide], the 50% effective concentration (EC50) worked out at 0.126 µM and the Emax turned out to be 284%.
The matching figures for `CC(C)C[C@H]1C(=O)N(CCC2CCCCC2)CC(=O)N[C@H](Cc2ccccc2)COc2ccc3c(c2C(=O)N[C@H](C(=O)NCCc2ccc4c(c2)OCO4)CC(=O)N1C)OCO3` [Example 345, (8R,14S,18S)-N-(2-(benzo[d][1,3]dioxol-5-yl)ethyl)-8-benzyl-12-(2-cyclohexylethyl)-14-isobutyl-15-methyl-10,13,16,20-tetraoxo-7,8,9,10,11,12,13,14,15,16,17,18,19,20-tetradecahydro-[1,3]dioxolo[4′,5′:5,6]benzo[1,2-p][1]oxa[4,7,10,14]tetraazacycloheptadecine-18-carboxamide]: 0.095 µM and 268%.
The matching figures for `COc1cccc(CCNC(=O)[C@@H]2CC(=O)N(C)[C@@H](CC(C)C)C(=O)N(CCC3CCCCC3)CC(=O)N[C@H](Cc3ccccc3)COc3ccc4c(c3C(=O)N2)OCO4)c1` [Example 346, (8R,14S,18S)-8-benzyl-12-(2-cyclohexylethyl)-14-isobutyl-N-(3-methoxyphenethyl)-15-methyl-10,13,16,20-tetraoxo-7,8,9,10,11,12,13,14,15,16,17,18,19,20-tetradecahydro-[1,3]dioxolo[4′,5′:5,6]benzo[1,2-p][1]oxa[4,7,10,14]tetraazacycloheptadecine-18-carboxamide]: 0.106 µM and 282%.
Turning to `[2H]C([2H])([2H])Oc1cccc(CCNC(=O)[C@@H]2CC(=O)N(C)[C@@H](CC(C)C)C(=O)N(CCC3CCCCC3)CC(=O)N[C@H](Cc3ccccc3)COc3ccc4c(c3C(=O)N2)OCO4)c1` [Example 347, (8R,14S,18S)-8-benzyl-12-(2-cyclohexylethyl)-14-isobutyl-N-(3-(methoxy-d3)phenethyl)-15-methyl-10,13,16,20-tetraoxo-7,8,9,10,11,12,13,14,15,16,17,18,19,20-tetradecahydro-[1,3]dioxolo[4′,5′:5,6]benzo[1,2-p][1]oxa[4,7,10,14]tetraazacycloheptadecine-18-carboxamide], the EC50 was 0.131 µM and the Emax amounted to 282%.
For `COc1cccc(CCNC(=O)[C@@H]2CC(=O)N(C)[C@@H](CC(C)C)C(=O)N3CCN(C4CC4)C[C@@H]3C(=O)N[C@H](Cc3ccccc3)COc3ccc4ncn(C)c4c3C(=O)N2)c1` [Example 348, (8S,12S,18aR,21R)-21-benzyl-17-cyclopropyl-12-isobutyl-N-(3-methoxyphenethyl)-5,11-dimethyl-6,10,13,19-tetraoxo-6,7,8,9,10,11,12,13,16,17,18,18a,19,20,21,22-hexadecahydro-5H,15H-imidazo[4′,5′:5,6]benzo[1,2-p]pyrazino[2,1-f][1]oxa[4,7,10,14]tetraazacycloheptadecine-8-carboxamide], the EC50 was 0.34 µM and the Emax was determined as 155%.
In the case of `CC(C)C[C@H]1C(=O)N(C)CC(=O)N[C@H](Cc2ccccc2)COc2cnc3c(F)cccc3c2C(=O)N[C@H](C(=O)NCCc2ccc3c(c2)OCO3)CC(=O)N1C` [Example 349, (3S,7S,13R)-N-(2-(benzo[d][1,3]dioxol-5-yl)ethyl)-13-benzyl-18-fluoro-7-isobutyl-6,9-dimethyl-1,5,8,11-tetraoxo-1,2,3,4,5,6,7,8,9,10,11,12,13,14-tetradecahydro-[1]oxa[4,7,10,14]tetraazacycloheptadecino[17,16-c]quinoline-3-carboxamide], the EC50 was found to be 0.597 µM and the Emax is 258%.
With `COc1cccc(CCNC(=O)[C@@H]2CC(=O)N(C)[C@@H](CC(C)C)C(=O)N(C)CC(=O)N[C@H](Cc3ccccc3)COc3cnc4c(F)cccc4c3C(=O)N2)c1` [Example 350, (3S,7S,13R)-13-benzyl-18-fluoro-7-isobutyl-N-(3-methoxyphenethyl)-6,9-dimethyl-1,5,8,11-tetraoxo-1,2,3,4,5,6,7,8,9,10,11,12,13,14-tetradecahydro-[1]oxa[4,7,10,14]tetraazacycloheptadecino[17,16-c]quinoline-3-carboxamide], the EC50 is 0.546 µM and the Emax came out at 299%.
In the case of `COc1cccc(CCNC(=O)[C@@H]2CC(=O)N(C)[C@@H](CC(C)C)C(=O)N3CCCC[C@@H]3C(=O)N[C@H](Cc3ccccc3)COc3ccc4oc(C)nc4c3C(=O)N2)c1` [Example 351, (8S,12S,18aR,21R)-21-benzyl-12-isobutyl-N-(3-methoxyphenethyl)-4,11-dimethyl-6,10,13,19-tetraoxo-6,7,8,9,10,11,12,13,16,17,18,18a,19,20,21,22-hexadecahydro-15H-oxazolo[5′,4′:5,6]benzo[1,2-p]pyrido[2,1-f][1]oxa[4,7,10,14]tetraazacycloheptadecine-8-carboxamide], the EC50 turned out to be 0.756 µM and the Emax is 127%.
With `COc1cccc(CCNC(=O)[C@@H]2CC(=O)N(C)[C@@H](CC(C)C)C(=O)N3CCN(C(C)C)C[C@@H]3C(=O)N[C@H](Cc3ccccc3)COc3ccc4nc(C)oc4c3C(=O)N2)c1` [Example 352, (8S,12S,18aR,21R)-21-benzyl-12-isobutyl-17-isopropyl-N-(3-methoxyphenethyl)-4,11-dimethyl-6,10,13,19-tetraoxo-6,7,8,9,10,11,12,13,16,17,18,18a,19,20,21,22-hexadecahydro-15H-oxazolo[4′,5′:5,6]benzo[1,2-p]pyrazino[2,1-f][1]oxa[4,7,10,14]tetraazacycloheptadecine-8-carboxamide], the EC50 is 0.297 µM and the maximum response (Emax) came out at 262%.
`COc1cccc(CCNC(=O)[C@@H]2CC(=O)N(C)[C@@H](CC(C)C)C(=O)N3CCN(C(C)C)C[C@@H]3C(=O)N[C@H](Cc3ccccc3)COc3ccc4ncn(C)c4c3C(=O)N2)c1` [Example 353, (8S,12S,18aR,21R)-21-benzyl-12-isobutyl-17-isopropyl-N-(3-methoxyphenethyl)-5,11-dimethyl-6,10,13,19-tetraoxo-6,7,8,9,10,11,12,13,16,17,18,18a,19,20,21,22-hexadecahydro-5H,15H-imidazo[4′,5′:5,6]benzo[1,2-p]pyrazino[2,1-f][1]oxa[4,7,10,14]tetraazacycloheptadecine-8-carboxamide]: the EC50 is 0.513 µM and the Emax was 177%.
Turning to `COCCN1CCN2C(=O)[C@H](CC(C)C)N(C)C(=O)C[C@@H](C(=O)NCCc3cccc(OC)c3)NC(=O)c3c(ccc4ccccc34)OC[C@@H](Cc3ccccc3)NC(=O)[C@H]2C1` [Example 354, (4aR,7R,18S,22S)-7-benzyl-22-isobutyl-3-(2-methoxyethyl)-N-(3-methoxyphenethyl)-21-methyl-5,16,20,23-tetraoxo-2,3,4,4a,5,6,7,8,16,17,18,19,20,21,22,23-hexadecahydro-1H-naphtho[1,2-p]pyrazino[2,1-f][1]oxa[4,7,10,14]tetraazacycloheptadecine-18-carboxamide], the EC50 is 0.231 µM and the maximal effect (Emax) stood at 321%.

The EC50 is the midpoint of the concentration-response curve. The term Emax denotes the greatest response seen or fitted, relative to the assay's reference.
